Biological target: S1P1 receptor (Homo sapiens, UniProt P21453)
Experiment: 35S-GTPγS binding, membranes from CHO cells expressing S1P1
Assay type: biochemical
Details: CHO cell membranes expressing S1P1
Procedure: Receptor binding assay: Membranes were prepared from CHO cells expressing S1P1 or S1P3 for use in ligand and 35S-GTPTS binding studies. Cells were suspended in 50 mM TRIS, pH 7.4, 2 mM EDTA, 250 mM Sucrose (buffer A) and 1× Complete protease inhibitor cocktail (Roche), and disrupted at 4° C. by nitrogen decompression using a cell disruption bomb (Parr Instrument). Following centrifugation at 1000 RPM for 10 min at 4° C., the supernatant was suspended in buffer A and centrifuged again at 19000 RPM for 60 min at 4° C. The pellet was then suspended in 10 mM HEPES, pH 7.4, 1 mM EDTA, 250 mM Sucrose (Buffer B), and 1× Complete EDTA-free protease inhibitor cocktail and homogenized using a potter. Membranes were flash frozen in liquid nitrogen and stored at −80° C. [33P]sphingosine 1-phosphate (3000 Ci/mmol; American Radiolabeled Chemicals, Inc.) was added to test compounds in DMSO. Membranes and WGA SPA beads (GE Healthcare) were added to give a final volume of 100 μl in 96-well plates with assay concentrations of […] [33P]sphingosine 1-phosphate (respectively for S1P1 or S1P3), 50 mM HEPES, pH 7.5, 5 mM MgCl2, 100 mM NaCl, 0.4% fatty acid-free BSA, 1-5 μg/well of proteins and 100 μg/well of WGA SPA beads. Binding was performed for 60 min at room temperature on a shaker and bound radioactivity was measured on a PerkinElmer 1450 MicroBeta counter. Specific binding was calculated by subtracting remaining radioactivity in the presence of 1000-fold excess of unlabeled S1P. Binding data were analyzed using the GraphPad Prism program.
Measurements of ^35S-GTPγS Binding: Membranes (1 to 10 μg protein) prepared as described above, were incubated in 96-well Scintiplates (PerkinElmer) with test compounds diluted in DMSO, in 180 μl of 20 mM HEPES, pH 7.4, 10 mM MgCl2, 2 μg/well Saponin, 0.2% fatty acid free BSA (Assay buffer), 140 mM NaCl and 1.7 μM GDP. The assay was initiated with the addition of 20 μl of 1.5 nM [35S]-GTPγS (1100 Ci/mmol; GE Healthcare) in assay buffer. After 60 min incubation at 30° C. on a shaker, plates were centrifuged for 10 min at 2000 RPM. Supernatant was discarded and membrane bound radioactivity was measured on a PerkinElmer 1450 MicroBeta counter. Triplicate samples were averaged and expressed as response relative to S1P activation in absence of compound (n=2).

Chain of S1P1 receptor (P21453 whole entry): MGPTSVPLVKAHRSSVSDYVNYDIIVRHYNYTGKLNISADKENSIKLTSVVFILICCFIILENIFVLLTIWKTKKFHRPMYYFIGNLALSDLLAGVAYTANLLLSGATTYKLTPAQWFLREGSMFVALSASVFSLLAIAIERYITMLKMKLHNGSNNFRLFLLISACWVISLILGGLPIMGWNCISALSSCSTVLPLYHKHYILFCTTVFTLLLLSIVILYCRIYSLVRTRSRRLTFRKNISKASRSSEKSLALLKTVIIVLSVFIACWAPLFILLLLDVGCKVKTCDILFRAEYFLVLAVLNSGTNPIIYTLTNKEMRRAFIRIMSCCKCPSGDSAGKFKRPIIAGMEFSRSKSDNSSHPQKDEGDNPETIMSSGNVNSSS

Compound | EC50
Cc1c(-c2nc(-c3cc(F)ccc3F)no2)nnn1-c1ccccc1Br [Example 3, 5-[1-(2-Bromophenyl)-5-methyl-1H-1,2,3-triazole-4-yl]-3-(2,5-difluorophenyl)-1,2,4-oxadiazole] | 2720 nM
Fc1ccccc1-n1nnc(-c2nc(-c3ccoc3)no2)c1-c1ccncc1 [Example 88, 4-{1-(2-fluorophenyl)-4-[3-(3-furyl)-1,2,4-oxadiazol-5-yl]-1H-1,2,3-triazol-5-yl}pyridine] | 945 nM
CN(C)Cc1c(-c2nc(-c3cc(F)ccc3F)no2)nnn1-c1ccccc1F [Example 91, 1-[4-[3-(2,5-difluorophenyl)-1,2,4-oxadiazol-5-yl]-1-(2-fluorophenyl)-1H-1,2,3-triazol-5-yl]-N,N-dimethylmethanamine] | 443 nM
Fc1ccccc1-c1noc(-c2nnn(-c3ccccc3F)c2C2CC2)n1 [Example 85, 5-[5-cyclopropyl-1-(2-fluorophenyl)-1H-1,2,3-triazol-4-yl]-3-(2-fluorophenyl)-1,2,4-oxadiazole] | 451 nM
Fc1ccccc1-n1nnc(-c2nc(-c3ccncc3)no2)c1C1CCCO1 (centres unmarked) [Example 56, 4-{5-[1-(2-fluorophenyl)-5-(tetrahydrofuran-2-yl)-1H-1,2,3-triazol-4-yl]-1,2,4-oxadiazol-3-yl}pyridine] | 1850 nM
Fc1ccccc1-c1noc(-c2nnn(-c3ccccc3F)c2C2CCCC2)n1 [Example 78, 5-[5-cyclopentyl-1-(2-fluorophenyl)-1H-1,2,3-triazol-4-yl]-3-(2-fluorophenyl)-1,2,4-oxadiazole] | 397 nM
Fc1ccccc1-c1noc(-c2nnn(-c3ccccc3F)c2C2CCCO2)n1 (centres unmarked) [Example 53, 3-(2-fluorophenyl)-5-[1-(2-fluorophenyl)-5-(tetrahydrofuran-2-yl)-1H-1,2,3-triazol-4-yl]-1,2,4-oxadiazole] | 211 nM
O=C(O)[C@@H]1CCCN1Cc1ccc(-c2noc(-c3nnn(-c4ccccc4F)c3-c3ccncc3)n2)cc1 [Example 159, 1-(4-{5-[1(2-fluorophenyl)-5-pyridin-4-yl-1H-1,2,3-triazol-4-yl]-1,2,4-oxadiazol-3-yl}benzyl)-L-proline] | 574 nM
Fc1ccc(F)c(-c2noc(-c3nnn(-c4ccccc4F)c3C3CCCO3)n2)c1 (centres unmarked) [Example 71, 3-(2,5-difluorophenyl)-5-[1-(2-fluorophenyl)-5-(tetrahydrofuran-2-yl)-1H-1,2,3-triazol-4-yl]-1,2,4-oxadiazole] | 176 nM
Fc1ccccc1-n1nnc(-c2nc(-c3cccc(CN4CCOCC4)c3)no2)c1-c1ccncc1 [Example 60, 4-(3-{5-[1-(2-fluorophenyl)-5-pyridin-4-yl-1H-1,2,3-triazol-4-yl]-1,2,4-oxadiazol-3-yl}benzyl)morpholine] | 620 nM
COc1ccc(-c2noc(-c3nnn(-c4ccccc4F)c3-c3ccccn3)n2)cc1 [Example 57, 2-{1-(2-fluorophenyl)-4-[3-(4-methoxyphenyl)-1,2,4-oxadiazol-5-yl]-1H-1,2,3-triazol-5-yl}pyridine] | 959 nM
Fc1ccccc1-n1nnc(-c2nc(-c3ccc(C(F)(F)F)nc3)no2)c1-c1ccncc1 [Example 120, 5-{5-[1-(2-fluorophenyl)-5-pyridin-4-yl-1H-1,2,3-triazol-4-yl]-1,2,4-oxadiazol-3-yl}-2-(trifluoromethyl)pyridine] | 754 nM
CC(C)c1c(-c2nc(-c3cc(F)ccc3F)no2)nnn1-c1ccccc1F [Example 63, 3-(2,5-difluorophenyl)-5-[1-(2-fluorophenyl)-5-isopropyl-1H-1,2,3-triazol-4-yl]-1,2,4-oxadiazole] | 310 nM
Fc1ccccc1-n1nnc(-c2nc(-c3ccc(CN4CCOCC4)cc3)no2)c1-c1ccncc1 [Example 98, 4-(4-{5-[1-(2-fluorophenyl)-5-pyridin-4-yl-1H-1,2,3-triazol-4-yl]-1,2,4-oxadiazol-3-yl}benzyl)morpholine] | 439 nM
Fc1ccccc1-n1nnc(-c2nc(-c3cnccn3)no2)c1-c1ccncc1 [Example 119, 2-{5-[1-(2-fluorophenyl)-5-pyridin-4-yl-1H-1,2,3-triazol-4-yl]-1,2,4-oxadiazol-3-yl}pyrazine] | 1260 nM

These reach a lower EC50. Values come first.

EC50 | Compound
18 nM | O=C1Cc2cc(-c3noc(-c4nnn(-c5ccccc5F)c4-c4ccncc4)n3)ccc2N1 [Example 106, 5-{5-[1-(2-fluorophenyl)-5-pyridin-4-yl-1H-1,2,3-triazol-4-yl]-1,2,4-oxadiazol-3-yl}-1,3-dihydro-2H-indol-2-one]
9 nM | Nc1c(Cl)cc(-c2noc(-c3nnn(-c4ccccc4F)c3-c3ccncc3)n2)cc1Cl [Example 117, 2,6-dichloro-4-{5-[1-(2-fluorophenyl)-5-pyridin-4-yl-1H-1,2,3-triazol-4-yl]-1,2,4-oxadiazol-3-yl}aniline]
26 nM | Fc1ccccc1-n1nnc(-c2nc(-c3ccc4c(c3)CNCC4)no2)c1-c1ccncc1 [Example 105, 7-{5-[1-(2-fluorophenyl)-5-pyridin-4-yl-1H-1,2,3-triazol-4-yl]-1,2,4-oxadiazol-3-yl}-1,2,3,4-tetrahydroisoquinoline]
11 nM | Fc1ccccc1-n1nnc(-c2nc(-c3ccc(Cn4cccn4)cc3)no2)c1-c1ccncc1 [Example 171, 4-(1-(2-fluorophenyl)-4-{3-[4-(1H-pyrazol-1-ylmethyl)phenyl]-1,2,4-oxadiazol-5-yl}-1H-1,2,3-triazol-5-yl)pyridine]
56 nM | COc1ccc(F)cc1-c1noc(-c2nnn(-c3ccccc3F)c2-c2ccncc2)n1 [Example 122, 4-[4-[3-(5-fluoro-2-methoxyphenyl)-1,2,4-oxadiazol-5-yl]-1-(2-fluorophenyl)-1H-1,2,3-triazol-5-yl]pyridine]
15 nM | Fc1ccccc1-n1nnc(-c2nc(-c3ccc(CN4CC[C@H](F)C4)cc3)no2)c1-c1ccncc1 [Example 167, 4-{1-(2-fluorophenyl)-4-[3-(4-{[(3S)-3-fluoropyrrolidin-1-yl]methyl}phenyl)-1,2,4-oxadiazol-5-yl]-1H-1,2,3-triazol-5-yl}pyridine]
67 nM | COCc1c(-c2nc(-c3ccc(Cn4ccnc4)cc3)no2)nnn1-c1ccccc1F [Example 175, 5-[1-(2-fluorophenyl)-5-(methoxymethyl)-1H-1,2,3-triazol-4-yl]-3-[4-(1H-imidazol-1-ylmethyl)phenyl]-1,2,4-oxadiazole]
4 nM | Fc1ccccc1-n1nnc(-c2nc(-c3ccc(Cn4ccnc4)cc3)no2)c1-c1ccncc1 [Example 170, 4-(1-(2-fluorophenyl)-4-{3-[4-(1H-imidazol-1-ylmethyl)phenyl]-1,2,4-oxadiazol-5-yl}-1H-1,2,3-triazol-5-yl)pyridine]
162 nM | CC(C)(NCc1ccc(-c2noc(-c3nnn(-c4ccccc4F)c3-c3ccncc3)n2)cc1)C(=O)O [Example 174, N-(4-{5-[1-(2-fluorophenyl)-5-pyridin-4-yl-1H-1,2,3-triazol-4-yl]-1,2,4-oxadiazol-3-yl}benzyl)-2-methylalanine]
8 nM | O=C(O)[C@H]1CC[C@@H](NCc2ccc(-c3noc(-c4nnn(-c5ccccc5F)c4-c4ccncc4)n3)cc2)C1 [Example 169, (1S, 3R)-3-(4-(5-(1-(2-fluorophenyl)-5-(pyridin-4-yl)-1H-1,2,3-triazol-4-yl)-1,2,4-oxadiazol-3-yl)benzylamino)cyclopentanecarboxylic acid]
23 nM | Oc1cccc(-c2noc(-c3nnn(-c4ccccc4F)c3-c3ccncc3)n2)c1 [Example 124, 3-{5-[1-(2-fluorophenyl)-5-pyridin-4-yl-1H-1,2,3-triazol-4-yl]-1,2,4-oxadiazol-3-yl}phenol]
8 nM | Oc1ccc(-c2noc(-c3nnn(-c4ccccc4F)c3-c3ccncc3)n2)cc1 [Example 64, 4-{5-[1-(2-fluorophenyl)-5-pyridin-4-yl-1H-1,2,3-triazol-4-yl]-1,2,4-oxadiazol-3-yl}phenol]
21 nM | OCc1ccc(-c2noc(-c3nnn(-c4ccccc4F)c3-c3ccncc3)n2)cc1 [Example 108, (4-{5-[1-(2-fluorophenyl)-5-pyridin-4-yl-1H-1,2,3-triazol-4-yl]-1,2,4-oxadiazol-3-yl}phenyl)methanol]
49 nM | Cc1ccc(-c2noc(-c3nnn(-c4ccccc4F)c3-c3ccncc3)n2)cc1 [Example 107, 4-{1-(2-fluorophenyl)-4-[3-(4-methylphenyl)-1,2,4-oxadiazol-5-yl]-1H-1,2,3-triazol-5-yl}pyridine]
